Data taken from article PMC12583704 (Signal Transduction and Targeted Therapy, 2025).
Values joined by “and” are separate entries in the source; they are usually repeats but may differ in a detail not shown here. Equal values may be shown once.

Experiment: Phase 1 study NCT03594422: adverse events graded by NCI CTCAE v4.03
Type: in vivo, human
Procedure: Part 1 was a dose-escalation study to determine the recommended phase 2 dose (RP2D) in solid tumors. […] The initial design was a 3 + 3 dose escalation from 20 mg, but the protocol was amended to randomly enroll and assign patients to starting doses of 30, 40, and 50 mg on the basis of safety data acquired in the CML trial.[20] […] An interactive web response system was used for randomization. Part 2 was a nonrandomized study focusing on patients with SDH-deficient GISTs. […] On the basis of preliminary data from adult patients, adolescent patients with advanced wild-type GISTs were also included in Part 2. The dosage for adolescents was adjusted according to their body weights.
AEs were evaluated at each follow-up visit: on Days 1, 8, 15, and 22 during Cycles 1 and 2; and on Days 1 and 15 in Cycle 3 and all subsequent cycles, up to 30 days after the final dose. All AEs were graded according to the National Cancer Institute Common Terminology Criteria for Adverse Events v4.03. Clinical laboratory investigations for routine blood examinations and serum chemistry parameters were performed during every cycle (on Day 1), during Cycles 1 and 2 (on Days 8, 15, and 22), and 30 days after the last dose of treatment. Urinalysis, coagulation, cardiac troponin I/T, lipase, amylase, and electrocardiographic evaluations were conducted at baseline; during Cycles 1 and 2 (on Days 1 and 15); during Cycles 3, 5, 7, and 9; every three cycles after Cycle 9 (on Day 1); and 14 days after the last dose of treatment. All patients underwent tumor imaging for response assessment via computed tomography or magnetic resonance imaging at screening and every two cycles (8 weeks) until progression or discontinuation. Target and nontarget lesions were assessed per the Response Evaluation Criteria in Solid Tumors version 1.1 (RECIST v1.1).

With `Cc1ccc(C(=O)Nc2ccc(CN3CCN(C)CC3)c(C(F)(F)F)c2)cc1C#Cc1cnc2[nH]ncc2c1` [Olverembatinib, 3-[(1H-pyrazolo[3,4-b]pyridin-5-yl)ethynyl]-4-methyl-N-{4-[(4-methylpiperazin-1-yl)methyl]-3-(trifluoromethyl)phenyl]benzamide] the “TRAE: Hypoalbuminemia” value (50 mg (n = 16), Grade 3-5) was 0 n (%), the “TRAE: Leukocyte count increased” value (50 mg (n = 16), Grade 3-5) was 0 n (%) and the “TRAE: Melanocytic nevus” value (50 mg (n = 16), Grade 3-5) was 0 n (%). For the same compound, the “TRAE: Neutrophil count increased” value (50 mg (n = 16), Grade 3-5) was 0 n (%), the “TRAE: Platelet count increased” value (50 mg (n = 16), Grade 3-5) was 0 n (%) and the “TRAE: Pyrexia” value (50 mg (n = 16), Grade 3-5) was 0 n (%). For the same compound, the “TEAE: Abdominal pain” value (Total (n = 66), Any grade) was 15 (22.7) n (%), the “TEAE: Alanine aminotransferase increased” value (Total (n = 66), Any grade) was 25 [37.9%] n (%) and 25 (37.9) n (%) and the “TEAE: Anemia” value (Total (n = 66), Any grade) was 31 [47.0%] n (%) and 31 (47.0) n (%). The “TEAE: Aspartate aminotransferase increased” value (Total (n = 66), Any grade) was 31 [47%] n (%) and 31 (47.0) n (%), the “TEAE: C-reactive protein increased” value (Total (n = 66), Any grade) was 15 (22.7) n (%) and the “TEAE: Constipation” value (Total (n = 66), Any grade) was 27 [40.9%] n (%) and 27 (40.9) n (%). The “TEAE: Fatigue” value (Total (n = 66), Any grade) was 20 [30.3%] n (%) and 20 (30.3) n (%), the “TEAE: Hyperuricemia” value (Total (n = 66), Any grade) was 31 (47.0) n (%) and the “TEAE: Hypoalbuminemia” value (Total (n = 66), Any grade) was 14 (21.2) n (%). For the same compound, the “TEAE: Leukocyte count increased” value (Total (n = 66), Any grade) was 32 [48.5%] n (%) and 32 (48.5) n (%), the “TEAE: Melanocytic nevus” value (Total (n = 66), Any grade) was 17 (25.8) n (%) and the “TEAE: Neutrophil count increased” value (Total (n = 66), Any grade) was 25 [37.9%] n (%) and 25 (37.9) n (%). The “TEAE: Pyrexia” value (Total (n = 66), Any grade) was 28 [42.4%] n (%) and 28 (42.4) n (%), the TEAEs (Total (n = 66), Any grade) was 66 (100.0%) n (%) and 66 (100.0) n (%) and the “TRAE: ALT increased” value (Total (n = 66), Any grade) was 20 (30.3) n (%). For the same compound, the “TRAE: AST increased” value (Total (n = 66), Any grade) was 23 (34.8) n (%), the “TRAE: Anemia” value (Total (n = 66), Any grade) was 9 (13.6) n (%) and the “TRAE: Blood creatinine increased” value (Total (n = 66), Any grade) was 9 (13.6) n (%). The “TRAE: Constipation” value (Total (n = 66), Any grade) was 23 (34.8) n (%), the “TRAE: Fatigue” value (Total (n = 66), Any grade) was 18 (27.3) n (%) and the “TRAE: Hypoalbuminemia” value (Total (n = 66), Any grade) was 10 (15.2) n (%). The “TRAE: Leukocyte count increased” value (Total (n = 66), Any grade) was 27 (40.9) n (%), the “TRAE: Melanocytic nevus” value (Total (n = 66), Any grade) was 15 (22.7) n (%) and the “TRAE: Neutrophil count increased” value (Total (n = 66), Any grade) was 22 (33.3) n (%). For the same compound, the “TRAE: Platelet count increased” value (Total (n = 66), Any grade) was 7 (10.6) n (%), the “TRAE: Pyrexia” value (Total (n = 66), Any grade) was 19 (28.8) n (%) and the “TEAE: Abdominal pain” value (Total (n = 66), Grade 3-5) was 1 (1.5) n (%). For the same compound, the “TEAE: Alanine aminotransferase increased” value (Total (n = 66), Grade 3-5) was 2 (3.0) n (%), the “TEAE: Anemia” value (Total (n = 66), Grade 3-5) was 4 (6.1) n (%) and the “TEAE: Aspartate aminotransferase increased” value (Total (n = 66), Grade 3-5) was 2 (3.0) n (%). The “TEAE: C-reactive protein increased” value (Total (n = 66), Grade 3-5) was 0 n (%), the “TEAE: Constipation” value (Total (n = 66), Grade 3-5) was 0 n (%) and the “TEAE: Fatigue” value (Total (n = 66), Grade 3-5) was 1 (1.5) n (%). The “TEAE: Hyperuricemia” value (Total (n = 66), Grade 3-5) was 1 (1.5) n (%), the “TEAE: Hypoalbuminemia” value (Total (n = 66), Grade 3-5) was 0 n (%) and the “TEAE: Leukocyte count increased” value (Total (n = 66), Grade 3-5) was 0 n (%). For the same compound, the “TEAE: Melanocytic nevus” value (Total (n = 66), Grade 3-5) was 0 n (%), the “TEAE: Neutrophil count increased” value (Total (n = 66), Grade 3-5) was 0 n (%) and the “TEAE: Pyrexia” value (Total (n = 66), Grade 3-5) was 0 n (%). The TEAEs (Total (n = 66), Grade 3-5) was 26 (39.4) n (%), the “TRAE: ALT increased” value (Total (n = 66), Grade 3-5) was 1 (1.5) n (%) and the “TRAE: AST increased” value (Total (n = 66), Grade 3-5) was 1 (1.5) n (%). For the same compound, the “TRAE: Anemia” value (Total (n = 66), Grade 3-5) was 0 n (%), the “TRAE: Blood creatinine increased” value (Total (n = 66), Grade 3-5) was 0 n (%) and the “TRAE: Constipation” value (Total (n = 66), Grade 3-5) was 0 n (%). The “TRAE: Fatigue” value (Total (n = 66), Grade 3-5) was 1 (1.5) n (%), the “TRAE: Hypoalbuminemia” value (Total (n = 66), Grade 3-5) was 0 n (%) and the “TRAE: Leukocyte count increased” value (Total (n = 66), Grade 3-5) was 0 n (%). For the same compound, the “TRAE: Melanocytic nevus” value (Total (n = 66), Grade 3-5) was 0 n (%), the “TRAE: Neutrophil count increased” value (Total (n = 66), Grade 3-5) was 0 n (%) and the “TRAE: Platelet count increased” value (Total (n = 66), Grade 3-5) was 0 n (%). The “TRAE: Pyrexia” value (Total (n = 66), Grade 3-5) was 0 n (%), the “patients who experienced grade ≥3 TRAEs” value (all 66 patients) was 13.6% and the “patients who experienced treatment-related AEs (TRAEs)” value (all 66 patients) was 93.9%. The “treatment-related serious AEs” value (all 66 patients) was 7.6%, the “Treatment-related SAE” value (all patients, Population, N 68) was 5 (7.4) n (%) and the “Treatment-related SAE: Anemia” value (all patients, Population, N 68) was 1 (1.5) n (%). The “Treatment-related SAE: Arteriosclerosis coronary artery” value (all patients, Population, N 68) was 1 (1.5) n (%), the “Treatment-related SAE: Intestinal obstruction” value (all patients, Population, N 68) was 2 (2.9) n (%) and the “Treatment-related SAE: Leukemoid reaction” value (all patients, Population, N 68) was 1 (1.5) n (%). For the same compound, the RP2D (based on safety data from a previous phase 1 study and randomization in Part 1) was 40 mg QOD and the “treatment discontinuation because of AEs” value (in vivo) was “no patients discontinued treatment because of AEs”.
